According to the Bradley open melting point set (2014):
Values joined by “and” are separate entries in the source; they are usually repeats but may differ in a detail not shown here. Identical values can stand only once.

Question: For `CC(O)CN` (racemic) [dl-1-amino-2-propanol], which melting point is on record?
Answer: -2 °C

Question: For `Cc1c(C)c(C)c(Br)c(C)c1C` [bromopentamethylbenzene], which melting point is on record?
Answer: 162 °C

Question: With `Oc1cccc2[nH]ccc12` [4-hydroxyindole] as the molecule, how does the melting point read?
Answer: 98 °C

Question: With `Clc1cccnc1Cl` [2,3-dichloropyridine] as the molecule, how does the melting point read?
Answer: 67 °C

Question: Which melting point does the source give for `C(=N\c1ccccc1)/c1ccccc1` [N-benzylideneaniline] here?
Answer: 53 °C

Question: For `Oc1cc(O)c2ccccc2c1` [1,3-dihydroxynaphthalene], which melting point is on record?
Answer: 125 °C

Question: Which melting point does the source give for `CCCC=O` [Butyraldehyde] here?
Answer: -96 °C

Question: Which melting point does the source give for `Cc1ccc([N+](=O)[O-])cc1` [4-nitrotoluene] here?
Answer: 52 °C

Question: For `Cc1ccc(B(O)O)cc1N` [3-amino-4-methylbenzeneboronic acid], which melting point is on record?
Answer: 250 °C

Question: Which melting point does the source give for `c1ccc2c(c1)ccc1c3ccccc3ccc21` [chrysene] here?
Answer: 255 °C

Question: With `OC1CCCC1` [Cyclopentanol] as the molecule, how does the melting point read?
Answer: -19 °C

Question: With `CC(=O)Nc1ccccc1` [Acetanilide] as the molecule, how does the melting point read?
Answer: 114 °C

Question: For `CN(C)S(C)(=O)=O` [N,N-dimethylmethanesulfonamide], which melting point is on record?
Answer: 48 °C

Question: With `Cc1ccn(C(N)=O)n1` [3-methyl-1h-pyrazole-1-carboxamide] as the molecule, how does the melting point read?
Answer: 125 °C

Question: For `COc1ccc(-c2ccccc2)cc1` [4-methoxybiphenyl], which melting point is on record?
Answer: 91 °C

Question: Which melting point does the source give for `O=C(/C=C/c1ccc(-c2cccc([N+](=O)[O-])c2)o1)c1ccccc1` [(2E)-3-[5-(3-Nitrophenyl)-2-furyl]-1-phenylprop-2-en-1-one] here?
Answer: 147 °C

Question: For `CC(=O)c1ccc(Cl)cc1O` [4'-chloro-2'-hydroxyacetophenone], which melting point is on record?
Answer: 29 °C

Question: For `Cn1c(/C(C#N)=N/Nc2ccc(Cl)cc2Cl)nc2ccccc21`, which melting point is on record?
Answer: 161 °C

Question: With `COc1ccccc1[N+](=O)[O-]` [o-nitroanisole] as the molecule, how does the melting point read?
Answer: 10 °C

Question: Which melting point does the source give for `CCCSc1ncccc1C(N)=O` [2-(n-propylthio)nicotinamide] here?
Answer: 147 °C

Question: With `O=C(O)c1cc2ccccc2s1` [benzo[b]thiophene-2-carboxylic acid] as the molecule, how does the melting point read?
Answer: 239 °C

Question: For `Cc1occc(=O)c1O` [3-hydroxy-2-methyl-4-pyrone], which melting point is on record?
Answer: 163 °C

Question: For `CC(=O)c1ccc(C)cc1` [4'-methylacetophenone], which melting point is on record?
Answer: -19 °C

Question: Which melting point does the source give for `C#CCCCCCCCCCCCCCCCC` [1-octadecyne] here?
Answer: 27 °C

Question: With `O=C(CCCN1CCC2(CC1)C(=O)NCN2c1ccccc1)c1ccc(F)cc1` [spiperone] as the molecule, how does the melting point read?
Answer: 190 °C

Question: Which melting point does the source give for `CCOC(=O)c1ccc(N)cc1` [Benzocaine, Ethyl 4-aminobenzoate] here?
Answer: 90 °C

Question: For `Cc1cc(=O)oc2c(O)c(O)ccc12` [7,8-dihydroxy-4-methylcomarin], which melting point is on record?
Answer: 243 °C

Question: For `COC(=O)c1ccc(O)cc1` [methylparaben], which melting point is on record?
Answer: 131 °C

Question: For `O=C[C@H](O)[C@H](O)[C@H](O)CO` [D-ribose], which melting point is on record?
Answer: 84 °C

Question: With `OB(O)c1ccnc(Cl)c1` [2-chloropyridine-4-boronic acid] as the molecule, how does the melting point read?
Answer: 162 °C

Question: Which melting point does the source give for `OB(O)c1cccnc1Cl` [2-chloropyridine-3-boronic acid] here?
Answer: 160 °C

Question: With `Cc1cc(CC(=O)O)n(C)c1C(=O)c1ccc(Cl)cc1` [zomepirac] as the molecule, how does the melting point read?
Answer: 178 °C

Question: Which melting point does the source give for `O=C(O)c1cc(F)c(F)c(F)c1F` [2,3,4,5-tetrafluorobenzoic acid] here?
Answer: 86 °C

Question: With `Cc1c2oc3c(C)ccc(C(=O)NC4C(=O)NC(C(C)C)C(=O)N5CCCC5C(=O)N(C)CC(=O)N(C)C(C(C)C)C(=O)OC4C)c3nc-2c(C(=O)NC2C(=O)NC(C(C)C)C(=O)N3CCCC3C(=O)N(C)CC(=O)N(C)C(C(C)C)C(=O)OC2C)c(N)c1=O` (stereo not drawn) [Dactinomycin] as the molecule, how does the melting point read?
Answer: 242 °C

Question: Which melting point does the source give for `CC(Oc1c(Cl)cccc1Cl)C1=NCCN1` (stereo not drawn) [Lofexidine] here?
Answer: 127 °C

Question: For `CC12CCC=C1C1CCC3CC(=O)CCC3(C)C1CC2` (stereo not drawn) [androst-14-en-3-one], which melting point is on record?
Answer: 116 °C

Question: For `C=CS(=O)(=O)c1ccccc1` [phenyl vinyl sulfone], which melting point is on record?
Answer: 69 °C

Question: With `CCSc1ncccc1C(=O)Cl` [2-(ethylthio)nicotinoyl chloride] as the molecule, how does the melting point read?
Answer: 51 °C

Question: Which melting point does the source give for `Cc1cc(CCl)c(C)cc1CCl` [2,5-bis(chloromethyl)-p-xylene] here?
Answer: 132 °C

Question: For `CC(=O)Oc1ccccc1C(=O)O` [acetylsalicylicacid], which melting point is on record?
Answer: 142 °C

Question: Which melting point does the source give for `Cc1cc(C)cc(N)c1` [3,5-dimethylaniline] here?
Answer: 10 °C

Question: For `COc1ccc(O)c(C=O)c1` [2-hydroxy-5-methoxybenzaldehyde], which melting point is on record?
Answer: 15 °C

Question: Which melting point does the source give for `ClCc1ccccc1` [benzyl_chloride] here?
Answer: -43 °C

Question: With `CC(=O)Nc1ccc(/C=C/c2ccc(NC(C)=O)cc2)cc1` [N,N'-[(E)-ethene-1,2-diyldibenzene-4,1-diyl]diacetamide] as the molecule, how does the melting point read?
Answer: 219 °C

Question: With `NC(=O)N1c2ccccc2C=Cc2ccccc21` [carbamazepine] as the molecule, how does the melting point read?
Answer: 190 °C

Question: For `O=S(=O)(Cl)Cc1cccc(Cl)c1` [3-chlorophenylmethanesulfonyl chloride], which melting point is on record?
Answer: 71 °C

Question: Which melting point does the source give for `CON=C(/c1ccco1)C(=O)N[C@@H]3C(=O)N2C(=C(COC(N)=O)CS[C@@H]23)C(=O)O` [Cefuroxime] here?
Answer: 222 °C

Question: With `Cc1cc(Br)cc(C)c1N=C=S` [4-bromo-2,6-dimethylphenyl isothiocyanate] as the molecule, how does the melting point read?
Answer: 80 °C

Question: For `Cc1ccc(C(C)C)c(O)c1` [thymol], which melting point is on record?
Answer: 51 °C

Question: Which melting point does the source give for `c1ccc(CN(CC2=NCCN2)c2ccccc2)cc1` [antazoline] here?
Answer: 120 °C

Question: Which melting point does the source give for `OCc1ccc(Br)cc1` [4-bromobenzyl alcohol] here?
Answer: 78 °C

Question: Which melting point does the source give for `O=Cc1ccccc1C(=O)O` [2-carboxybenzaldehyde] here?
Answer: 99 °C

Question: Which melting point does the source give for `c1ccc2c(c1)Oc1ccccc1S2` [Phenoxathiine] here?
Answer: 59.5 °C

Question: Which melting point does the source give for `Cc1ccccc1C#N` [o-tolunitrile] here?
Answer: -14 °C

Question: For `O=C(O)Cc1cccc(Cl)c1` [3-chlorophenylacetic acid], which melting point is on record?
Answer: 79 °C

Question: With `Oc1ccc(Cl)c(Cl)c1` [3,4-dichlorophenol] as the molecule, how does the melting point read?
Answer: 67 °C

Question: For `c1ccc2c(c1)Cc1ccccc1-2` [fluorene], which melting point is on record?
Answer: 116 °C and 115 °C

Question: For `[2H]c1c([2H])c([2H])c(-c2c([2H])c([2H])c(-c3c([2H])c([2H])c([2H])c([2H])c3[2H])c([2H])c2[2H])c([2H])c1[2H]` [(~2~H_14_)-1,1':4',1''-Terphenyl], which melting point is on record?
Answer: 213 °C

Question: For `O=[N+]([O-])c1cccc2c(/C=N/c3ccccc3)cccc12` [N-[(1E)-(5-nitronaphthalen-1-yl)methylidene]aniline], which melting point is on record?
Answer: 84 °C

Question: With `C[Si]1(C)O[Si](C)(C)O[Si](C)(C)O1` [hexamethylcyclotrisiloxane] as the molecule, how does the melting point read?
Answer: 65 °C

Question: For `c1ccc2c(c1)CCO2` [2,3-dihydrobenzo[b]furan], which melting point is on record?
Answer: -21 °C

Question: For `COc1ccc(OC)c2c1C(=O)OC2O` (stereo not drawn) [3-hydroxy-4,7-dimethoxy-2-benzofuran-1(3H)-one], which melting point is on record?
Answer: 192 °C

Question: For `NC(=O)Cc1ccc(O)cc1` [4-hydroxyphenylacetamide], which melting point is on record?
Answer: 174 °C

Question: With `O=C4\C=C3/[C@]([C@H]2CC[C@]1([C@@H](CC[C@@]1(O)C)[C@@H]2CC3)C)(C)CC4` [17-methyltestosterone] as the molecule, how does the melting point read?
Answer: 164 °C

Question: With `CC[C@H](C)[C@H](NC(=O)OCC1c2ccccc2-c2ccccc21)C(=O)O` [N-fmoc-L-isoleucine] as the molecule, how does the melting point read?
Answer: 147 °C

Question: Which melting point does the source give for `O=C1C=C(c2ccccc2)c2ccccc21` [3-phenyl-1H-inden-1-one] here?
Answer: 51 °C

Question: With `O=S(=O)(O)c1ccccc1` [Benzenesulfonic acid] as the molecule, how does the melting point read?
Answer: 43.5 °C

Question: For `Nc1c(Br)cc([N+](=O)[O-])cc1Br` [2,6-dibromo-4-nitroaniline], which melting point is on record?
Answer: 207 °C
